The term inhibition denotes the change of the read-out against control, counted positive when it falls.

One test deals with NA-uptake (Rattus norvegicus, UniProt Q63380). In words: biochemical. Conditions: for inhibition at 10 µM: read-out: NA-uptake [10 μM], % inhibition.
The target of a further test is T1, 5HT-uptake (Rattus norvegicus, UniProt P31652).
T1 construct: synaptosomes were freshly isolated from areas of rats' brains
In words: biochemical. Conditions: for inhibition at 10 µM: read-out: 5HT-uptake [10 μM], % inhibition.

Sequence of NA-uptake (Q63380 1-617): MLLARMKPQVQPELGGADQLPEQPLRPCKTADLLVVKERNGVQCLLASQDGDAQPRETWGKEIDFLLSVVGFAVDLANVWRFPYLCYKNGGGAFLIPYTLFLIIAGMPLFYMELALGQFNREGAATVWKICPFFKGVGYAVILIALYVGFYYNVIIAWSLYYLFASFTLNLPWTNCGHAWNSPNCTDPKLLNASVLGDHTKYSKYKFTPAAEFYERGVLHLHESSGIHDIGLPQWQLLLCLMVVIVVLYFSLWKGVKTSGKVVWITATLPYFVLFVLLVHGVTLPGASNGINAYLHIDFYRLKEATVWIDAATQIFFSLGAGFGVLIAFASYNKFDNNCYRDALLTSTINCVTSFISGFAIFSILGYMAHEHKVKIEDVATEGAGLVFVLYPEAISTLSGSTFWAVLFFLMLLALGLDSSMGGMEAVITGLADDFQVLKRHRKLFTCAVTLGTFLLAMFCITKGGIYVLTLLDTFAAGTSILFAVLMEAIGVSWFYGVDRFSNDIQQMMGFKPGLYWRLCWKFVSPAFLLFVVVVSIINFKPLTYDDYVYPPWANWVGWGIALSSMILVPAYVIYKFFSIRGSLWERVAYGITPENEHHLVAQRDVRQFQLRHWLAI
T1 sequence (P31652 whole entry): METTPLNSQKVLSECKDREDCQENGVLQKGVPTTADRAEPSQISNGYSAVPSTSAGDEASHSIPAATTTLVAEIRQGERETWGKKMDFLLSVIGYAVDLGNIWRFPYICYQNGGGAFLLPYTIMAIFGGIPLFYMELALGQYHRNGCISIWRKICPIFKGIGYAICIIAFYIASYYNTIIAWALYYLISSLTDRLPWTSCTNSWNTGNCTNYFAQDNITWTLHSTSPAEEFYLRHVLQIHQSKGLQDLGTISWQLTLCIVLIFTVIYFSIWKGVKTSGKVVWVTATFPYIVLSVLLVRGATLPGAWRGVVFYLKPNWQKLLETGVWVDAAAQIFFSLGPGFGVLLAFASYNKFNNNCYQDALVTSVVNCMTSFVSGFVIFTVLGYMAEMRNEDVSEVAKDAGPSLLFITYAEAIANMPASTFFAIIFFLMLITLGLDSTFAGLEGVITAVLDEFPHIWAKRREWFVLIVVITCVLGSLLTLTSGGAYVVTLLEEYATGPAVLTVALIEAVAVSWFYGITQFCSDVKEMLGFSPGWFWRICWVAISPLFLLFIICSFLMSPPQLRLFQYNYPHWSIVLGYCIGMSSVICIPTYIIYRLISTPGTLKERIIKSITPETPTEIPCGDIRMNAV

With `COc1cc(CN2CCN(C(=O)CCC(=O)NC3CCC(Cc4ccc(C)cc4)(N(C)C)CC3)CC2)cc2c1OCO2` (centres unmarked) [Example 4, N-[4-dimethylamino-4-(4-methyl-benzyl)-cyclohexyl]-4-[4-(7-methoxy-benzo[1,3]dioxol-5-ylmethyl)-piperazin-1-yl]-4-oxo-butyramide], the inhibition at 10 µM on NA-uptake amounted to 89%; at 5HT-uptake, 92%.

Regarding `COc1ccc(F)c(CN2CCN(C(=O)CCCC(=O)NC3CCC(Cc4ccccc4)(N(C)C)CC3)CC2)c1` (centres unmarked) [Example 25, 5-[4-(2-fluoro-5-methoxy-benzyl)-piperazin-1-yl]-5-oxo-valeric acid (4-benzyl-4-dimethylamino-cyclohexyl)-amide], the inhibition at 10 µM at NA-uptake worked out at 95%; at 5HT-uptake, 97%.

For `Cc1cccc(CC2(N(C)C)CCC(NC(=O)CCC(=O)N3CCN(C(=O)c4cccc(Cl)c4)CC3)CC2)c1` (centres unmarked) [Example 107, 4-[4-(3-chloro-benzoyl)-piperazin-1-yl]-N-[4-dimethylamino-4-(3-methyl-benzyl)-cyclohexyl]-4-oxo-butyramide], the inhibition at 10 µM on NA-uptake stood at 106%; at 5HT-uptake it was 95%.

As to `Cc1ccc(CC2(N(C)C)CCC(NC(=O)CCC(=O)N3CCC(CNC(=O)C(F)(F)F)CC3)CC2)cc1` (centres unmarked) [Example 51, N-[4-dimethylamino-4-(4-methyl-benzyl)-cyclohexyl]-4-oxo-4-{4-[(2,2,2-trifluoro-acetylamino)-methyl]-piperidin-1-yl}-butyramide], the inhibition at 10 µM at NA-uptake is 77%; at 5HT-uptake, 92%.

As for `Cc1cccc(N2CCN(C(=O)CCCC(=O)NC3CCC(Cc4ccccc4)(N(C)C)CC3)CC2)c1C` (centres unmarked) [Example 56, 5-[4-(2,3-dimethyl-phenyl)-piperazin-1-yl]-5-oxo-valeric acid (4-benzyl-4-dimethylamino-cyclohexyl)-amide], the inhibition at 10 µM worked out at 96% on NA-uptake and 95% on 5HT-uptake.

For the compound `CN(C)C1(Cc2cccc(Cl)c2)CCC(NC(=O)CCC(=O)NCCc2c[nH]c3ccccc23)CC1` (centres unmarked) [Example 99, N-[4-(3-chloro-benzyl)-4-dimethylamino-cyclohexyl]-N′-[2-(1H-indol-3-yl)-ethyl]-succinamicle], on NA-uptake, the “NA-uptake [10 μM], % inhibition” value is given as 99%. Further, on 5HT-uptake, the “5HT-uptake [10 μM], % inhibition” value is listed as 94%.

Take `Cc1cccc(CC2(N(C)C)CCC(NC(=O)CCC(=O)N3CCc4[nH]c5ccc(F)cc5c4C3)CC2)c1` (centres unmarked) [Example 106, N-[4-dimethylamino-4-(3-methyl-benzyl)-cyclohexyl]-4-(8-fluoro-1,3,4,5-tetrahydro-pyrido[4,3-b]indol-2-yl)-4-oxo-butyramide]: the inhibition at 10 µM at NA-uptake turned out to be 98%; on 5HT-uptake it was 93%.

With `CN(C)C1(Cc2ccc(Cl)cc2)CCC(NC(=O)CCC(=O)NCc2cc(F)cc(F)c2)CC1` (centres unmarked) [Example 49, N-[4-(4-chloro-benzyl)-4-dimethylamino-cyclohexyl]-N′-(3,5-difluoro-benzyl)-succinamide], the figures for the inhibition at 10 µM at NA-uptake and on 5HT-uptake were 98% and 92%, respectively.

Take `Cc1ccc(CCNC(=O)CCC(=O)NC2CCC(Cc3ccc(C)cc3)(N(C)C)CC2)cc1` (centres unmarked) [Example 168, N-[4-dimethylamino-4-(4-methyl-benzyl)-cyclohexyl]-N′-(2-p-tolyl-ethyl)-succinamide]: the results for the inhibition at 10 µM on NA-uptake and at 5HT-uptake were 96% and 92%, respectively.

For `COc1ccc(NC(=O)CCC(=O)NC2CCC(Cc3cccc(C)c3)(N(C)C)CC2)cc1` (centres unmarked) [Example 75, N-[4-dimethylamino-4-(3-methyl-benzyl)-cyclohexyl]-N′-(4-methoxy-phenyl)-succinamide], the results for the inhibition at 10 µM on NA-uptake and at 5HT-uptake were 99% and 97%, respectively.

In the case of `Cc1ccc(CC2(N(C)C)CCC(NC(=O)CCC(=O)N3CCN(c4ccccn4)CC3)CC2)cc1` (centres unmarked) [Example 21, N-[4-dimethylamino-4-(4-methyl-benzyl)-cyclohexyl]-4-oxo-4-(4-pyridin-2-yl-piperazin-1-yl)-butyramide], the inhibition at 10 µM at NA-uptake came out at 83%; on 5HT-uptake it was 95%.

Regarding `CN(C)C1(Cc2ccccc2)CCC(NC(=O)CCCC(=O)N2CCN(C3CCCCCC3)CC2)CC1` (centres unmarked) [Example 62, 5-(4-cycloheptyl-piperazin-1-yl)-5-oxo-valeric acid (4-benzyl-4-dimethylamino-cyclohexyl)-amide], the figures for the inhibition at 10 µM on NA-uptake and at 5HT-uptake were 86% and 100%, respectively.

For the compound `Cc1ccc(CC2(N(C)C)CCC(NC(=O)CCC(=O)Nc3ccc(OCc4ccccc4)cc3)CC2)cc1` (centres unmarked) [Example 101, N-(4-benzyloxy-phenyl)-N′-[4-dimethylamino-4-(4-methyl-benzyl)-cyclohexyl]-succinamide], the inhibition at 10 µM turned out to be 77% on NA-uptake and 94% on 5HT-uptake.

Consider `Cc1cccc(CC2(N(C)C)CCC(NC(=O)CCC(=O)N(C)CC(=O)OCc3ccccc3)CC2)c1` (centres unmarked) [Example 22, ({3-[4-dimethylainino-4-(3-methyl-benzyl)-cyclohexylcarbamoyl]-propionyl}-methyl-amino)-acetic acid benzyl ester], for which the “NA-uptake [10 μM], % inhibition” value at NA-uptake turned out to be 93%. Besides, on 5HT-uptake, the “5HT-uptake [10 μM], % inhibition” value is 95%.

As to `Cc1ccc(CC2(N(C)C)CCC(NC(=O)CCC(=O)N3CCN(c4ccccc4C)CC3)CC2)cc1` (centres unmarked) [Example 94, N-[4-dimethylamino-4-(4-methyl-benzyl)-cyclohexyl]-4-oxo-4-(4-o-tolyl-piperazin-1-yl)-butyramide], the inhibition at 10 µM worked out at 86% on NA-uptake and 92% on 5HT-uptake.

As to “Glutaric acid-(4-benzyl-4-dimethylamino- cyclohexyl)-amide 4-dimethylamino- benzylamide [Example 81]”, on NA-uptake, the “NA-uptake [10 μM], % inhibition” value stood at 91%. The “5HT-uptake [10 μM], % inhibition” value at 5HT-uptake is on record as 92%.

Turning to `CN(C)C1(Cc2ccc(Cl)cc2)CCC(NC(=O)CCC(=O)NC2CCN(Cc3ccc(C(F)(F)F)cc3)C2)CC1` (centres unmarked) [Example 98, N-[4-(4-chloro-benzyl)-4-dimethylamino-cyclohexyl]-N′-[1-(4-trifluoromethyl-benzyl)-pyrrolidin-3-yl]-succinamide], the inhibition at 10 µM turned out to be 74% on NA-uptake and 92% at 5HT-uptake.

For the compound `CC(=O)c1ccc(N2CCN(C(=O)CCC(=O)NC3CCC(Cc4ccc(C)cc4)(N(C)C)CC3)CC2)cc1` (centres unmarked) [Example 27, 4-[4-(4-Acetyl-phenyl)-piperazin-1-yl]-N-[4-dimethylamino-4-(4-methyl-benzyl)-cyclohexyl]-4-oxo-butyramide], the inhibition at 10 µM on NA-uptake came to 92%; at 5HT-uptake, 95%.

Turning to `COCCCNC(=O)CCC(=O)NC1CCC(Cc2ccc(Cl)cc2)(N(C)C)CC1` (centres unmarked) [Example 26, N-[4-(4-chloro-benzyl)-4-dimethylamino-cyclohexyl]-N′-(3-methoxy-propyl)-succinamide], the inhibition at 10 µM was 79% at NA-uptake and 93% at 5HT-uptake.

With `CCOP(=O)(Cc1ccc(NC(=O)CCC(=O)NC2CCC(Cc3cccc(Cl)c3)(N(C)C)CC2)cc1)OCC` (centres unmarked) [Example 37, (4-{3-[4-(3-chloro-benzyl)-4-dimethylamino-cyclohexylcarbamoyl]-propionylamino}-benzyl)-phosphonic acid diethylester], the results for the inhibition at 10 µM at NA-uptake and at 5HT-uptake were 100% and 95%, respectively.

Take `Cc1ccc(CC2(N(C)C)CCC(NC(=O)CCC(=O)NC(C)C(C)C)CC2)cc1` (centres unmarked) [Example 105, N-[4-dimethylamino-4-(4-methyl-benzyl)-cyclohexyl]-N′-(1,2-dimethyl-propyl)-succinamide]: the inhibition at 10 µM was determined as 90% on NA-uptake and 92% on 5HT-uptake.

For the compound `Cc1cccc(CC2(N(C)C)CCC(NC(=O)CCC(=O)N(C)CCc3c[nH]c4ccccc34)CC2)c1` (centres unmarked) [Example 111, N-[4-dimethylamino-4-(3-methyl-benzyl)-cyclohexyl]-N′-[2-(1H-indol-3-yl)-ethyl]-N′-methyl-succinamide], the inhibition at 10 µM at NA-uptake is 97%; on 5HT-uptake, 96%.

For the compound `CN(C)C1(Cc2cccc(Cl)c2)CCC(NC(=O)CCC(=O)N2CCc3[nH]c4ccc(F)cc4c3C2)CC1` (centres unmarked) [Example 8, N-[4-(3-chloro-benzyl)-4-dimethylamino-cyclohexyl]-4-(8-fluoro-1,3,4,5-tetrahydro-pyrido[4,3-b]indol-2-yl)-4-oxo-butyramide], the figures for the inhibition at 10 µM at NA-uptake and at 5HT-uptake were 85% and 92%, respectively.

For the compound `CN(C)C1(Cc2ccc(Cl)cc2)CCC(NC(=O)CCC(=O)Nc2ccc3c(c2)CCC3)CC1` (centres unmarked) [Example 100, N-[4-(4-chloro-benzyl)-4-dimethylamino-cyclohexyl]-N′-indan-5-yl-succinamide], the inhibition at 10 µM is 77% on NA-uptake and 92% on 5HT-uptake.

`COc1ccc(CCN(C)C(=O)CCC(=O)NC2CCC(Cc3cccc(C)c3)(N(C)C)CC2)cc1OC` (centres unmarked) [Example 71, N-[2-(3,4-dimethoxy-phenyl)-ethyl]-N′-[4-dimethylamino-4-(3-methyl-benzyl)-cyclohexyl]-N-methyl-succinamide]: the values for the inhibition at 10 µM at NA-uptake and at 5HT-uptake were 94% and 92%, respectively.

With `Cc1ccc(CC2(N(C)C)CCC(NC(=O)CCC(=O)N3CCN(c4cccc(C)c4)CC3)CC2)cc1` (centres unmarked) [Example 6, N-[4-dimethylamino-4-(4-methyl-benzyl)-cyclohexyl]-4-oxo-4-(4-m-tolyl-piperazin-1-yl)-butyramide], the inhibition at 10 µM on NA-uptake amounted to 91%; on 5HT-uptake it was 96%.

Take `Cc1cnc(C(=O)N2CCN(C(=O)CCC(=O)NC3CCC(Cc4ccc(Cl)cc4)(N(C)C)CC3)CC2)cn1` (centres unmarked) [Example 14, N-[4-(4-chloro-benzyl)-4-dimethylamino-cyclohexyl]-4-[4-(5-methyl-pyrazin-2-carbonyl)-piperazin-1-yl]-4-oxo-butyramide]: the inhibition at 10 µM at NA-uptake turned out to be 78%; on 5HT-uptake, 95%.

For the compound `CN(C)C1(Cc2ccc(Cl)cc2)CCC(NC(=O)CCC(=O)N2CC=C(c3ccc(F)cc3)CC2)CC1` (centres unmarked) [Example 104, N-[4-(4-chloro-benzyl)-4-dimethylamino-cyclohexyl]-4-[4-(4-fluoro-phenyl)-3,6-dihydro-2H-pyridin-1-yl]-4-oxo-butyramide], the inhibition at 10 µM at NA-uptake stood at 84%; on 5HT-uptake it was 93%.
